# Test results published in patent publication US20230023092A1, “TREATMENT OF DEPRESSION AND OTHER VARIOUS DISORDERS WITH PSILOCYBIN” (COMPASS […], priority 2019, published 2023).
# Tested on: healthy subjects
# Experiment: Phase 1 study: adverse events (TEAEs, MedDRA coded)
# Format: in vivo, human
# Description: A Phase 1 randomized, double-blind, placebo-controlled study to evaluate the effect of psilocybin on cognitive and emotional processing as compared to placebo in healthy volunteers was conducted. The study investigated the short-term (Day 7) and long-term (Day 28) effects of moderate (10 mg) and high doses (25 mg) of psilocybin on key domains of cognition, such as episodic memory, attention, working and spatial memory, social cognition and elements of executive function, including cognitive flexibility.
# Each subject was assigned 1 treatment bottle containing 5 capsules packaged in a double-blind fashion, depending on the randomized treatment arm, the bottle contained one of the following: • a. Psilocybin 10 mg: 2×5-mg oral psilocybin capsules plus 3×placebo capsules • b. Psilocybin 25 mg: 5×5-mg oral psilocybin capsules • c. Placebo: 5×placebo capsules
# Each 5-mg oral psilocybin capsules comprised 5 mg crystalline psilocybin in the form or Polymorph A, 12.5 mg of SMCC 50, 79.5 mg of SMCC 90, 1 mg sodium starch glycolate, 1 mg colloidal silicon dioxide, and 1 mg sodium stearyl fumarate
# Adverse events: Throughout the course of the study, all AEs were monitored and recorded. Each AE was classified according to the following criteria: • i. […] Moderate: The AE produces some impairment of functioning, but is not hazardous to the subject's health. • iii. Severe: The AE produces significant impairment of functioning or incapacitation and is a definite hazard to the subject's health.
# Visit 3 (V3): Drug Administration (Day 0): The subject was asked to eat a light breakfast at least two hours prior to coming to the clinic for study drug administration. On Day 0 (V3), the subject underwent the SSTS, had vital signs obtained, medications reviewed, AEs recorded and eligibility reviewed prior to being randomized to study drug. The study drug was administered to up to six subjects simultaneously in individual beds separated by a curtain. The subject was invited to put on eyeshades and headphones, lie down and listen to calming music for the rest of the session (six hours). The subject was supported 1:1 with a chaperone and supervised by the study psychiatrist and lead therapist.
# During administration of psilocybin, each subject received one-on-one support from a trained assisting therapist and each dosing session was supervised by a study psychiatrist and a lead therapist. The study drug was administered simultaneously to up to six participants as a single 5-capsule oral dose (10 mg psilocybin: 2×5-mg psilocybin capsules plus 3×placebo capsules; 25 mg psilocybin: 5×5-mg psilocybin capsules; placebo: 5×placebo capsules). Twenty-five dosing sessions were completed, with up to six participants dosed simultaneously per session. Each session lasted approximately 6 to 8 hours with subjects encouraged to relax and engage in introspection for the duration. After the acute effects of the study drug had subsided, subjects were discharged.
compound,measurement,setting,value
"CN(C)CCc1c[nH]c2cccc(OP(=O)(O)O)c12 [Psilocybin, psilocybin]","Hypoaesthesia, worst severity Moderate, N (%)",10 mg oral,0
same,"Hypoaesthesia, worst severity Severe, Events",10 mg oral,0
same,"Hypoaesthesia, worst severity Severe, N (%)",10 mg oral,0
same,"Illusion, Events",10 mg oral,25
same,"Illusion, N (%)",10 mg oral,19 (63.3)
same,"Illusion, worst severity Mild, Events",10 mg oral,7
same,"Illusion, worst severity Mild, N (%)",10 mg oral,7 (23.3)
same,"Illusion, worst severity Moderate, Events",10 mg oral,16
same,"Illusion, worst severity Moderate, N (%)",10 mg oral,12 (40.0)
same,"Illusion, worst severity Severe, Events",10 mg oral,0
same,"Illusion, worst severity Severe, N (%)",10 mg oral,0
same,"Infections and infestations, Events",10 mg oral,4
same,"Infections and infestations, N (%)",10 mg oral,4 (13.3)
same,"Infections and infestations, worst severity Mild, Events",10 mg oral,2
same,"Infections and infestations, worst severity Mild, N (%)",10 mg oral,2 (6.7)
same,"Infections and infestations, worst severity Moderate, Events",10 mg oral,2
same,"Infections and infestations, worst severity Moderate, N (%)",10 mg oral,2 (6.7)
same,"Infections and infestations, worst severity Severe, Events",10 mg oral,0
same,"Infections and infestations, worst severity Severe, N (%)",10 mg oral,0
same,"Investigations, Events",10 mg oral,2
same,"Investigations, N (%)",10 mg oral,2 (6.7)
same,"Investigations, worst severity Mild, Events",10 mg oral,2
same,"Investigations, worst severity Mild, N (%)",10 mg oral,2 (6.7)
same,"Investigations, worst severity Moderate, Events",10 mg oral,0
same,"Investigations, worst severity Moderate, N (%)",10 mg oral,0
same,"Investigations, worst severity Severe, Events",10 mg oral,0
same,"Investigations, worst severity Severe, N (%)",10 mg oral,0
same,"Memory impairment, Events",10 mg oral,1
same,"Memory impairment, N (%)",10 mg oral,1 (3.3)
same,"Mental fatigue, Events",10 mg oral,0
same,"Mental fatigue, N (%)",10 mg oral,0
same,"Mood altered, Events",10 mg oral,23
same,"Mood altered, N (%)",10 mg oral,13 (43.3)
same,"Mood altered, worst severity Mild, Events",10 mg oral,2
same,"Mood altered, worst severity Mild, N (%)",10 mg oral,2 (6.7)
same,"Mood altered, worst severity Moderate, Events",10 mg oral,8
same,"Mood altered, worst severity Moderate, N (%)",10 mg oral,5 (16.7)
same,"Mood altered, worst severity Severe, Events",10 mg oral,9
same,"Mood altered, worst severity Severe, N (%)",10 mg oral,6 (20.0)
same,"Musculoskeletal and connective tissue disorders, Events",10 mg oral,1
same,"Musculoskeletal and connective tissue disorders, N (%)",10 mg oral,1 (3.3)
same,"Musculoskeletal and connective tissue disorders, worst severity Mild, Events",10 mg oral,0
same,"Musculoskeletal and connective tissue disorders, worst severity Mild, N (%)",10 mg oral,0
same,"Musculoskeletal and connective tissue disorders, worst severity Moderate, Events",10 mg oral,1
same,"Musculoskeletal and connective tissue disorders, worst severity Moderate, N (%)",10 mg oral,1 (3.3)
same,"Musculoskeletal and connective tissue disorders, worst severity Severe, Events",10 mg oral,0
same,"Musculoskeletal and connective tissue disorders, worst severity Severe, N (%)",10 mg oral,0
same,"Nausea, Events",10 mg oral,1
same,"Nausea, N (%)",10 mg oral,1 (3.3)
same,"Nervous system disorders, Events",10 mg oral,35
same,"Nervous system disorders, N (%)",10 mg oral,21 (70.0)
same,"Nervous system disorders, worst severity Mild, Events",10 mg oral,23
same,"Nervous system disorders, worst severity Mild, N (%)",10 mg oral,15 (50.0)
same,"Nervous system disorders, worst severity Moderate, Events",10 mg oral,8
same,"Nervous system disorders, worst severity Moderate, N (%)",10 mg oral,6 (20.0)
same,"Nervous system disorders, worst severity Severe, Events",10 mg oral,0
same,"Nervous system disorders, worst severity Severe, N (%)",10 mg oral,0
same,"Paraesthesia, Events",10 mg oral,4
same,"Paraesthesia, N (%)",10 mg oral,4 (13.3)
same,"Paraesthesia, worst severity Mild, Events",10 mg oral,4
same,"Paraesthesia, worst severity Mild, N (%)",10 mg oral,4 (13.3)
same,"Paraesthesia, worst severity Moderate, Events",10 mg oral,0
same,"Paraesthesia, worst severity Moderate, N (%)",10 mg oral,0
same,"Paraesthesia, worst severity Severe, Events",10 mg oral,0
same,"Paraesthesia, worst severity Severe, N (%)",10 mg oral,0
same,"Psychiatric disorders, Events",10 mg oral,121
same,"Psychiatric disorders, N (%)",10 mg oral,27 (90.0)
same,"Psychiatric disorders, worst severity Mild, Events",10 mg oral,6
same,"Psychiatric disorders, worst severity Mild, N (%)",10 mg oral,4 (13.3)
same,"Psychiatric disorders, worst severity Moderate, Events",10 mg oral,29
same,"Psychiatric disorders, worst severity Moderate, N (%)",10 mg oral,13 (43.3)
same,"Psychiatric disorders, worst severity Severe, Events",10 mg oral,21
same,"Psychiatric disorders, worst severity Severe, N (%)",10 mg oral,10 (33.3)
same,"Psychomotor skills impaired, Events",10 mg oral,1
same,"Psychomotor skills impaired, N (%)",10 mg oral,1 (3.3)
same,"Respiratory, thoracic and mediastinal disorders, Events",10 mg oral,0
same,"Respiratory, thoracic and mediastinal disorders, N (%)",10 mg oral,0
same,"Selected TEAE: Nervous system disorders, Events",10 mg oral,2
same,"Selected TEAE: Nervous system disorders, N (%)",10 mg oral,2 (6.7)
same,"Selected TEAE: Psychiatric disorders, Events",10 mg oral,104
same,"Selected TEAE: Psychiatric disorders, N (%)",10 mg oral,27 (90.0)
same,"Somatic hallucination, Events",10 mg oral,8
same,"Somatic hallucination, N (%)",10 mg oral,8 (26.7)
same,"Somatic hallucination, worst severity Mild, Events",10 mg oral,1
same,"Somatic hallucination, worst severity Mild, N (%)",10 mg oral,1 (3.3)
same,"Somatic hallucination, worst severity Moderate, Events",10 mg oral,7
same,"Somatic hallucination, worst severity Moderate, N (%)",10 mg oral,7 (23.3)
same,"Somatic hallucination, worst severity Severe, Events",10 mg oral,0
same,"Somatic hallucination, worst severity Severe, N (%)",10 mg oral,0
same,"Substance-induced psychotic disorder, Events",10 mg oral,0
same,"Substance-induced psychotic disorder, N (%)",10 mg oral,0
same,"Tension headache, Events",10 mg oral,3
same,"Tension headache, N (%)",10 mg oral,3 (10.0)
same,"Tension headache, worst severity Mild, Events",10 mg oral,1
same,"Tension headache, worst severity Mild, N (%)",10 mg oral,1 (3.3)
same,"Tension headache, worst severity Moderate, Events",10 mg oral,2
same,"Tension headache, worst severity Moderate, N (%)",10 mg oral,2 (6.7)
same,"Tension headache, worst severity Severe, Events",10 mg oral,0
same,"Tension headache, worst severity Severe, N (%)",10 mg oral,0
same,"Time perception altered, Events",10 mg oral,2
same,"Time perception altered, N (%)",10 mg oral,2 (6.7)
same,"Time perception altered, worst severity Mild, Events",10 mg oral,1
same,"Time perception altered, worst severity Mild, N (%)",10 mg oral,1 (3.3)
same,"Time perception altered, worst severity Moderate, Events",10 mg oral,1
same,"Time perception altered, worst severity Moderate, N (%)",10 mg oral,1 (3.3)
same,"Time perception altered, worst severity Severe, Events",10 mg oral,0
same,"Time perception altered, worst severity Severe, N (%)",10 mg oral,0
same,Adverse events reported by % of subjects,"10 mg oral, 12-week study",96.7%
same,Reported 'Mood altered' events: Being less judgmental (number),10 mg psilocybin (n = 30),1
same,Reported 'Mood altered' events: Calm (number),10 mg psilocybin (n = 30),0
same,Reported 'Mood altered' events: Clarity of thought (number),10 mg psilocybin (n = 30),0
same,Reported 'Mood altered' events: Contemplative state (number),10 mg psilocybin (n = 30),1
same,Reported 'Mood altered' events: Feeling more moody/sensitive (number),10 mg psilocybin (n = 30),1
same,Reported 'Mood altered' events: Feeling of adrenaline release (number),10 mg psilocybin (n = 30),0
same,Reported 'Mood altered' events: Feeling rested (number),10 mg psilocybin (n = 30),1
same,Reported 'Mood altered' events: Increased compassion (number),10 mg psilocybin (n = 30),0
same,Reported 'Mood altered' events: Increased creativity (number),10 mg psilocybin (n = 30),0
same,Reported 'Mood altered' events: Increased empathy (number),10 mg psilocybin (n = 30),2
same,Reported 'Mood altered' events: Increased sense of connectedness (number),10 mg psilocybin (n = 30),0
same,Reported 'Mood altered' events: Increased wit (number),10 mg psilocybin (n = 30),1
same,Reported 'Mood altered' events: Introspection (number),10 mg psilocybin (n = 30),5
same,Reported 'Mood altered' events: Laughter (number),10 mg psilocybin (n = 30),1
same,Reported 'Mood altered' events: More socially upbeat (number),10 mg psilocybin (n = 30),0
same,Reported 'Mood altered' events: Negative mood (number),10 mg psilocybin (n = 30),0
same,Reported 'Mood altered' events: Reflections (number),10 mg psilocybin (n = 30),3
same,Reported 'Mood altered' events: Saw themselves from a new perspective (number),10 mg psilocybin (n = 30),0
same,Reported 'Mood altered' events: Sense of oneness (number),10 mg psilocybin (n = 30),4
same,Reported 'Mood altered' events: Sense of openness (number),10 mg psilocybin (n = 30),1
same,Reported 'Mood altered' events: Unusual appreciation of music (number),10 mg psilocybin (n = 30),0
same,"AEs deemed potentially related to study treatment, % of AEs of the arm",25 mg oral,95.9%
same,"Affect lability, Events",25 mg oral,3
